The structures appear in SMILES notation.

What all share (format): functional
The test system of assay [1] is Schistosoma mansoni. Description: Antiparasitic activity against Schistosoma mansoni BH cercareae infected Swiss mouse assessed as total number of worms after 10 days by mesenteric veins perfusion technique.
Assay [2] concerns Schistosoma mansoni. Kind of assay: Antiparasitic activity against Schistosoma mansoni BH cercareae infected Swiss mouse assessed as average number of eggs at 3 stage after 10 days by oogram test.
Assay [3] relates to Schistosoma mansoni. Kind of assay: Antiparasitic activity against Schistosoma mansoni BH cercareae infected Swiss mouse assessed as average number of eggs at 3 stage after 20 days by oogram test.
Assay [4] deals with Schistosoma mansoni. Description: Antiparasitic activity against Schistosoma mansoni BH cercareae infected Swiss mouse assessed as average number of eggs at 1 stage after 20 days by oogram test.
Assay [5] has as its system Schistosoma mansoni. Kind of assay: Antiparasitic activity against Schistosoma mansoni BH cercareae infected Swiss mouse assessed as average number of eggs at 2 stage after 10 days by oogram test.
In assay [6] the test system is Schistosoma mansoni. Kind of assay: Antiparasitic activity against Schistosoma mansoni BH cercareae infected Swiss mouse as total numbers of worms after 20 days by mesenteric veins perfusion technique.
Assay [7] deals with Schistosoma mansoni. Description: Antiparasitic activity against Schistosoma mansoni BH cercareae infected Swiss mouse assessed as average number of eggs at 1 stage after 10 days by oogram test.
Assay [8] deals with Schistosoma mansoni. Description: Antiparasitic activity against Schistosoma mansoni BH cercareae infected Swiss mouse assessed as average number of eggs at 2 stage after 20 days by oogram test.

As to `C=C(C)C(=O)OCc1cc2c(cc1[N+](=O)[O-])NC(CNC(C)C)CC2` (stereo unspecified) [OXAMNIQUINE ACRYLAMIDE], the Activity in the assay with Schistosoma mansoni [1] was found to be 48; in the assay with Schistosoma mansoni [2], 0.22; with Schistosoma mansoni [3], 0.27; in the assay on Schistosoma mansoni [4], 0; with Schistosoma mansoni [5] it was 0.11; in the assay on Schistosoma mansoni [6], 39. Also, the values for the Activity in the assay on Schistosoma mansoni [7] and in the assay on Schistosoma mansoni [8] were 0 and 0.09, respectively.

On to `CC(C)NCC1CCc2cc(CO)c([N+](=O)[O-])cc2N1` (stereo unspecified) [OXAMNIQUINE], for which the Activity in the assay on Schistosoma mansoni [1] came out at 3; in the assay on Schistosoma mansoni [2] it was 0; with Schistosoma mansoni [3] it was 0; in the assay with Schistosoma mansoni [4] it was 0; in the assay with Schistosoma mansoni [5], 0; in the assay with Schistosoma mansoni [6], 13. The Activity in the assay with Schistosoma mansoni [7] and in the assay with Schistosoma mansoni [8] was 0 throughout.

For the origin of these results see ChEMBL document CHEMBL1146319, “Design, synthesis, and in vivo evaluation of oxamniquine methacrylate and acrylamide prodrugs” (2007).
